Results from US20180028543A1, “HYPOLIPIDEMIC COMPOSITION AND USE THEREOF” (priority 2014, published 2018).

What was measured:
[1] = system: hyperlipidemia rats; assay: Hypolipidemic animal experiment: blood lipid levels in high-fat feed rats; format: in vivo, SD rats; details: serum, positive drug 1.5 mg/kg intragastric, 4 weeks, X ± S, n = 10
Description: 3. […] From the day of experiment, the blank control group and the model control group were intragastrically administered with normal saline (volume: 10 ml/kg), the administration group was intragastrically administered with corresponding drugs once a day, the body weight was weighed once a week, and the dosage was adjusted according to the body weight. The blank control group was fed with the normal feed, the other groups was fed with high-fat feed. During the experiment, free feeding, free drinking, continuous molding and drug administration for prevention were carried out for 4 weeks.
(§1) 4. Observation indexes: after the last administration, the rats fasted for 12 h without fasting water. The rats were anesthetized with 3% pentobarbital sodium, blood was collected from the abdominal aorta, serum was centrifugally separated, and the serum total cholesterol (TC), triglyceride (TG), high-density lipoprotein cholesterol (HDL-C), low-density lipoprotein cholesterol (LDL-C), alanine aminotransferase (ALT) and aspartate aminotransferase (AST) values were measured.

[2] = system: hyperlipidemia rats; assay: Effect on liver function (serum ALT, AST) of high-fat feed rats; format: in vivo, SD rats; details: positive drug 1.5 mg/Kg-d, 4 weeks, X ± S, n = 10
From the text: 1. Experimental materials: 150 healthy SD male and female rats in clean grade, with body weight of (150.2±8.9) g.
2. Feed: general feed, high-fat feed formula: 72.7% of basic feed, 2% of cholesterol, 5% of egg yolk powder, 10% of lard, 0.2% of propylthiouracil, 10% of sucrose and 0.1% of sodium cholate.
3. Grouping and administration of animals: the purchased experimental rats were adaptively fed for 1 week in a lab, original numbers were assigned according to the weighing order, and the rats were randomly divided into a blank control group, a model control group, a pharmaceutical composition (respectively prepared as in Examples 3, 6, 8 and 10, and added with 50 ml of water per 10 g to be dissolved to obtain a solution) low-dose group (5 ml/kg·d), a middle-dose group (10 ml/kg-d), a high-dose group (15 ml/kg·d), a positive drug (simvastatin) control group (1.5 mg/kg, volume: 10 ml/kg) by looking up a random number table, and there were 10 rats in each group. […]
as §1, with “Observation indexes: after the last administration, the rats fasted for 12 h without fasting water.” left out, “measured. […]” for “measured.”

## CCC(C)(C)C(=O)O[C@H]1C[C@@H](C)C=C2C=C[C@H](C)[C@H](CC[C@@H]3C[C@@H](O)CC(=O)O3)[C@H]21 [Positive drug, simvastatin]
[1]
  HDL-C: 1.23 ± 0.17 mmol/L
  LDL-C: 1.68 ± 1.91 mmol/L
  TC: 8.42 ± 4.79 mmol/L
  TG: 0.49 ± 0.18 mmol/L
[2]
  ALT: 45.85 ± 5.21 U/L
  AST: 22.32 ± 7.56 U/L
